Assay results published in US20010023254A1, “Use of sulfamate derivatives for treating impulse control disorders” (priority 2000, published 2001).
“Also recorded” adds a separate entry of the source.

What was measured:
[1] = system: Patients with Binge Eating Disorder (BED); experiment: Patients with Binge Eating Disorder (BED) treated clinically with open-label topiramate; assay type: in vivo, human
Protocol: (§1) In the examples, patients were treated with open-label topiramate starting at 25 mg/qHS and the dosage increased by the patient in 25 mg increments as tolerated by the subjects until a response is seen up to a maximum of 1200 mg. [table]

[2] = system: Patients with Overeating, Overweight, and Obesity; experiment: Patients with overeating, overweight and obesity treated clinically with topiramate; assay type: in vivo, human
Protocol: as §1

[3] = system: patients who coincidentally had binge eating disorder; experiment: Clinical studies of topiramate in mood disorders; patients who coincidentally had binge eating disorder; assay type: in vivo, human; conditions: several mood disorder patients with coincident binge eating disorder
Source text: The activity of the compounds of formula I in treating ICD's was first evidenced in clinical studies conducted to evaluate the efficacy of topiramate in treating mood disorders.

[4] = system: patients with epilepsy; conditions: cited from earlier work
[5] = system: Persons with bulimia nervosa; conditions: cited from earlier work
[6] = Pt 5, first trial, max dose 100 mg/day
[7] = Pt 5, second trial, max dose 100 mg/day
[8] = Pt 5, first trial, max dose 250 mg/day
[9] = Pt 5, second trial, max dose 200 mg/day

CC1(C)O[C@@H]2[C@@H](CO[C@@]3(COS(N)(=O)=O)OC(C)(C)O[C@@H]23)O1 [Topiramate, 2,3;4,5-bis-O-(1-methylethylidene)-beta -D-fructopyranose sulfamate]
Loss of weight ([1]; Pt 1, max dose 1200 mg/day): Loss of 107 lbs.
Response of BD (Bipolar Disorder) ([1]; Pt 1, max dose 1200 mg/day): Remission of BD
Response of BED (Binge Eating Disorder) ([1]; Pt 1, max dose 1200 mg/day): Remission of BED
Discontinuation and its reason (adverse effects) ([1]; Pt 2, max dose 150 mg/day): Discontinued due to sedation,; also recorded: cognitive dulling
Loss of weight ([1]; Pt 2, max dose 150 mg/day): Loss of 5 lbs.
Response of BD (Bipolar Disorder) ([1]; Pt 2, max dose 150 mg/day): Mild improvement of BD,
Response of BED (Binge Eating Disorder) ([1]; Pt 2, max dose 150 mg/day): Moderate decrease of BED,
Loss of weight ([1]; Pt 3, max dose 1200 mg/day): Loss of 50.5 lbs
Response of BD (Bipolar Disorder) ([1]; Pt 3, max dose 1200 mg/day): Moderate improvement of BD.
Response of BED (Binge Eating Disorder) ([1]; Pt 3, max dose 1200 mg/day): Remission of BED
Loss of weight ([1]; Pt 4, max dose 900 mg/day): Loss of 30.5 lbs.
Response of BD (Bipolar Disorder) ([1]; Pt 4, max dose 900 mg/day): Moderate improvement of BD,
Response of BED (Binge Eating Disorder) ([1]; Pt 4, max dose 900 mg/day): Marked improvement of BED,
Discontinuation and its reason (adverse effects) [1, 6]: discontinued due to GI distress
Response of BED (Binge Eating Disorder) [1, 6]: First trial: No response of BED,
Loss of weight [1, 7]: Loss of 11 lbs.
Response of BED (Binge Eating Disorder) [1, 7]: Remission of BED
Response of Compulsive Buying [1, 7]: Remission of Compulsive
Response of BD (Bipolar Disorder) ([1]; Pt 5, second trial, max dose 100 mg/day, BD in remission at start): Second Trial: Worsening of BD
Response of BED (Binge Eating Disorder) ([1]; Pt 6, max dose 100 mg/day): No response of BED
Weight change ([1]; Pt 6, max dose 100 mg/day): No weight change
Loss of weight ([2]; Pt 1, max dose 700 mg/day): 9 lbs
Response of BD (Bipolar Disorder) ([2]; Pt 1, max dose 700 mg/day): No response of BD
Loss of weight ([2]; Pt 2, max dose 300 mg/day): 16 lbs
Response of BD (Bipolar Disorder) ([2]; Pt 2, max dose 300 mg/day): Remission of BD
Response of overeating ([2]; Pt 2, max dose 300 mg/day): Remission of overeating
Loss of weight ([2]; Pt 3 ADJ, max dose 400 mg/day): 7 lbs
Response of BD (Bipolar Disorder) ([2]; Pt 3 ADJ, max dose 400 mg/day): Moderate improvement of BD
Response of overeating ([2]; Pt 3 ADJ, max dose 400 mg/day): Moderate improvement of overeating
Loss of weight ([2]; Pt 4, max dose 350 mg/day): 5 lbs
Response of BD (Bipolar Disorder) ([2]; Pt 4, max dose 350 mg/day): No response of BD
Response of overeating ([2]; Pt 4, max dose 350 mg/day): Mild improvement in overeating
Loss of weight [2, 8]: 7 lbs
Response of BD (Bipolar Disorder) [2, 8]: First Trial: Worsening of BD
Response of overeating [2, 8]: Mild decrease of overeating
Body weight, before-after [2, 9]: 154-155 lbs
Gain of weight [2, 9]: 1 lb
Response of overeating [2, 9]: Mild decrease of overeating
Loss of weight ([2]; Pt 6, max dose 800 mg/day): 9 lbs
Response of BD (Bipolar Disorder) ([2]; Pt 6, max dose 800 mg/day, BD in remission at start): Worsening of BD
Discontinuation and its reason (adverse effects) ([2]; Pt 7 NLR, max dose 300 mg/day): Discontinued due to anorexia
Loss of weight ([2]; Pt 7 NLR, max dose 300 mg/day): 46 lbs
Response of BD (Bipolar Disorder) ([2]; Pt 7 NLR, max dose 300 mg/day): Worsening of BD
Loss of weight ([2]; Pt 8 PR, max dose 700 mg/day): 19 lbs
Reason for discontinuation (adverse effects) ([2]; Pt 8 PR, max dose 700 mg/day): G.I. Distress
Response of BD (Bipolar Disorder) ([2]; Pt 8 PR, max dose 700 mg/day): Moderate improvement of BD
Response of overeating ([2]; Pt 8 PR, max dose 700 mg/day): Marked improvement in overeating
Binging, as reported by patients [3]: marked reduction in their binging
Weight, as reported by patients [3]: concurrent loss in weight
Efficacy in simple and complex partial seizures and secondarily generalized seizures ([4]; clinical trials of human epilepsy, adjunctive therapy or monotherapy): effective
Effect on appetite ([4]; controlled trials in patients with epilepsy): suppression of appetite
Effect on weight ([4]; controlled trials in patients with epilepsy, unrelated to binge eating): weight loss

O=C1NC(=O)C(c2ccccc2)(c2ccccc2)N1 [phenytoin]
Binge eating [5]: reduced binge eating
